Patent US10808041B2, “Lincosamides universal monoclonal antibody hybridoma cell strain and application thereof” (Jiangnan University, priority 2017, dated 2020)

Tested on: lincosamides universal monoclonal antibody secreted by monoclonal cell strain CGMCC No. 14691
Experiment: indirect competitive ELISA with coating antigen Lin-OVA
Type: binding, BALB/c mice
Conditions: lincosamides standard substances competing with coating antigen Lin-OVA
Description: The specific ELISA procedure was as follows:
Coating: the coating antigen was subjected to gradient dilution with a 0.05 M pH 9.6 carbonate buffer solution, and incubated at 37° C. for 2 h at 100 μL/well.
Washing: a solution in a plate was decanted, and 200 μL of a PBST solution was injected into each well, placed on a shaker to shake for 3 min, spin-dried, and washed 3 times. The following washing method was the same.
Blocking: After patting dry, 200 μL of a blocking buffer was added to each well, and incubated at a temperature of 37° C. for 2 h. After washing, the product was dried to be ready for use.
Color development: the ELISA plate was taken out, and fully washed, and then 100 μL of a color developing solution (the ratio of TMB to a substrate liquid is 1:5) was added to each well to react at a temperature of 37° C. for 15 min in the dark.
Stopping and determination: the ELISA plate was taken out, 50 μL of a stop solution (2 mol/L sulfuric acid) was added to each well to stop the reaction, and then the absorbance A450 of each well was determined by an ELISA reader.

| half inhibition concentration (IC50) of the monoclonal antibody [µg/mL] | SMILES |
| --- | --- |
| 0.004339 | CCC[C@@H]1C[C@@H](C(=O)N[C@@H]([C@H]2O[C@H](SC)[C@H](O)[C@@H](O)[C@H]2O)[C@@H](C)O)N(C)C1 [lincomycin] |
| 0.019314 | CC[C@@H]1CCN[C@H](C(=O)N[C@@H]([C@H]2O[C@H](SC)[C@H](O)[C@@H](O)[C@H]2O)[C@H](C)Cl)C1 [pirlimycin] |
